Values joined by “and” are separate entries in the source; they are usually repeats but may differ in a detail not shown here. Equal values may be shown once. Numbered stars: 1 amine (or outer) side, 2 acyl side, 3 side chain; on linkers, the order of the positions; unused ones are H or OH. Side chains are listed from the residue outwards. Peptide text beside a SMILES is read from it. * marks the point of attachment. γGlu = O=C(O)[C@H](CCC(=O)[*:2])N[*:1]; Palmitoyl = CCCCCCCCCCCCCCCC(=O)*; Ahx = NCCCCCC(=O)O
Key:
Assay in all cases: cAMP activity assay in assay medium (assay 1)
Type in all cases: cell-based
Human GLP1R = Human GLP1R (Homo sapiens, UniProt P43220); parameters: expressed in transfected cells; details: assay medium; Table 4; read-out: hGLP1R EC50
Sequence of Human GLP1R (P43220 24-463): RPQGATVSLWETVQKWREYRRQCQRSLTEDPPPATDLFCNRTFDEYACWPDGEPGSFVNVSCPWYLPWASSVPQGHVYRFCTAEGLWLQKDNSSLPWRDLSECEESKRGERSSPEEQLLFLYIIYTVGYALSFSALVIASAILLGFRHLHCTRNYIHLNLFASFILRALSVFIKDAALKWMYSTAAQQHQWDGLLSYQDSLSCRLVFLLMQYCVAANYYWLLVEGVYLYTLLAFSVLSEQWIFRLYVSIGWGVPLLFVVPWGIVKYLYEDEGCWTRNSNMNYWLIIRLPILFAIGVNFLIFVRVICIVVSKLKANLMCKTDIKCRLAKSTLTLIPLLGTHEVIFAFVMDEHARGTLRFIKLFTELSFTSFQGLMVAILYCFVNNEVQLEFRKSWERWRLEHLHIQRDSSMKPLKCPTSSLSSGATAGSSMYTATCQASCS
Text: (§1) Biological Activity of Peptides in Cell-Based cAMP Activity Assay (Assay 1):
(§2) All sample dilutions were made in duplicate.

Human GlucR = molecular target: T1, Human GlucR (Homo sapiens, UniProt P47871); details: assay medium; Table 4; read-out: hGlucR EC50
T1 construct: expressed in transfected cells
T1 sequence (P47871 26-477): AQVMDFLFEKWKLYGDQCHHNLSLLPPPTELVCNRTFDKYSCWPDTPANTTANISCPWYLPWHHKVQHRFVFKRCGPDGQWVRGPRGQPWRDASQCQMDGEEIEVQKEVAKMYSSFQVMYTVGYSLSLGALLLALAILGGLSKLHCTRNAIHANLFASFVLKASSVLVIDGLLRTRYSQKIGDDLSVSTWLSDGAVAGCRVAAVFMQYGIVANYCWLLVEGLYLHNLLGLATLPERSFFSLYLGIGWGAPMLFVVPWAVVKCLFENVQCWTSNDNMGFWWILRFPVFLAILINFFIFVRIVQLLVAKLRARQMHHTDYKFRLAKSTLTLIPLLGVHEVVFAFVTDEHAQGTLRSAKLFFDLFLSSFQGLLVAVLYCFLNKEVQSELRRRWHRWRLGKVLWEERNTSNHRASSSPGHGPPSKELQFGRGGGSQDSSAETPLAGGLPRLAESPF
Text: as §1, §2

Human GIPr = molecular target: T2, Human GIPr (Homo sapiens, UniProt P48546); details: assay medium; Table 4; read-out: hGIPR EC50
T2 construct: expressed in transfected cells
T2 sequence (P48546 22-466): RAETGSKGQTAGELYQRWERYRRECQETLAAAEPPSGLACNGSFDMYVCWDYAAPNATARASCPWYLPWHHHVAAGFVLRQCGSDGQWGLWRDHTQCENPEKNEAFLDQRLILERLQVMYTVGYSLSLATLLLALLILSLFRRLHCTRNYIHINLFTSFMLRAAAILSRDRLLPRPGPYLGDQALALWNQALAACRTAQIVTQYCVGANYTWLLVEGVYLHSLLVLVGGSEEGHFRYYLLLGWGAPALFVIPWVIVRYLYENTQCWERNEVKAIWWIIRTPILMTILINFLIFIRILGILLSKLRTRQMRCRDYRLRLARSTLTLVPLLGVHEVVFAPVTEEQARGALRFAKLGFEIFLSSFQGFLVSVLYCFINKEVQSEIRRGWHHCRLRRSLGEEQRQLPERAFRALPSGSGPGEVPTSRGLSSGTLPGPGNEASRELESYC
Text: as §1, §2

| SMILES | EC50 (Human GLP1R) | EC50 (Human GlucR) | EC50 (Human GIPr) |
| --- | --- | --- | --- |
| CCCCCCCCCCCCCCCC(=O)N[C@@H](CCC(=O)N[C@@H](CCC(=O)NCCCC[C@H](NC(=O)[C@H](CO)NC(=O)[C@H](CC(=O)O)NC(=O)[C@H](CC(C)C)NC(=O)[C@H](Cc1ccc(O)cc1)NC(=O)[C@H](CCCCN)NC(=O)[C@H](CO)NC(=O)[C@H](Cc1ccc(O)cc1)NC(=O)[C@H](CC(=O)O)NC(=O)[C@H](CO)NC(=O)[C@@H](NC(=O)[C@H](Cc1ccccc1)NC(=O)[C@@H](NC(=O)CNC(=O)[C@H](CCC(N)=O)NC(=O)[C@H](CO)NC(=O)[C@@H](N)Cc1c[nH]cn1)[C@@H](C)O)[C@@H](C)O)C(=O)N[C@@H](CCCNC(=N)N)C(=O)N[C@@H](C)C(=O)N[C@@H](CCC(N)=O)C(=O)N[C@@H](CC(=O)O)C(=O)N[C@@H](Cc1ccccc1)C(=O)N[C@H](C(=O)N[C@@H](CCC(N)=O)C(=O)N[C@@H](Cc1c[nH]c2ccccc12)C(=O)N[C@@H](CC(C)C)C(=O)N[C@H](C(=O)N[C@@H](C)C(=O)NCC(=O)NCC(N)=O)C(C)C)C(C)C)C(=O)O)C(=O)O [g336] | 0.0366 nM | 0.00177 nM | 19.6 nM |
| CCCCCCCCCCCCCCCC(=O)N[C@@H](CCC(=O)NCCCC[C@H](NC(=O)[C@H](CO)NC(=O)[C@H](CC(=O)O)NC(=O)[C@H](CC(C)C)NC(=O)[C@H](Cc1ccc(O)cc1)NC(=O)[C@H](CCCCN)NC(=O)[C@H](CO)NC(=O)[C@H](Cc1ccc(O)cc1)NC(=O)[C@H](CC(=O)O)NC(=O)[C@H](CO)NC(=O)[C@@H](NC(=O)[C@H](Cc1ccccc1)NC(=O)[C@@H](NC(=O)CNC(=O)[C@H](CCC(=O)O)NC(=O)[C@H](CO)NC(=O)[C@@H](N)Cc1c[nH]cn1)[C@@H](C)O)[C@@H](C)O)C(=O)N[C@@H](CCCNC(=N)N)C(=O)N[C@@H](C)C(=O)N[C@@H](CCC(N)=O)C(=O)N[C@@H](CC(=O)O)C(=O)N[C@@H](Cc1ccccc1)C(=O)N[C@H](C(=O)N[C@@H](CCC(N)=O)C(=O)N[C@@H](Cc1c[nH]c2ccccc12)C(=O)N[C@@H](CC(C)C)C(=O)N[C@H](C(=O)N[C@@H](C)C(=O)NCC(=O)NCC(N)=O)C(C)C)C(C)C)C(=O)O [g381] (H-HSEGTFTSDYSKYLDSK([γGlu-Palmitoyl])RAQDFVQWLVAGG-NH2; N-terminus assumed) | 0.0908 nM | 1.93 nM | 545 nM |
| CCCCCCCCCCCCCCCC(=O)N[C@@H](CCC(=O)NCCCC[C@H](NC(=O)[C@H](CO)NC(=O)[C@H](CC(=O)O)NC(=O)[C@H](CC(C)C)NC(=O)[C@H](Cc1ccc(O)cc1)NC(=O)[C@H](CCCCN)NC(=O)[C@H](CO)NC(=O)[C@H](Cc1ccc(O)cc1)NC(=O)[C@H](CC(=O)O)NC(=O)[C@H](CO)NC(=O)[C@@H](NC(=O)[C@H](Cc1ccccc1)NC(=O)[C@@H](NC(=O)CNC(=O)[C@H](CCC(N)=O)NC(=O)C(C)(C)NC(=O)[C@@H](N)Cc1c[nH]cn1)[C@@H](C)O)[C@@H](C)O)C(=O)N[C@@H](CCCNC(=N)N)C(=O)N[C@@H](C)C(=O)N[C@@H](CCC(N)=O)C(=O)N[C@@H](CC(=O)O)C(=O)N[C@@H](Cc1ccccc1)C(=O)N[C@H](C(=O)N[C@@H](CCC(N)=O)C(=O)N[C@@H](Cc1c[nH]c2ccccc12)C(=O)N[C@@H](CC(C)C)C(=O)N[C@H](C(=O)N[C@@H](C)C(=O)NCC(=O)NCC(N)=O)C(C)C)C(C)C)C(=O)O [g384] | 0.0272 nM | 0.0429 nM | 17 nM |
| CCCCCCCCCCCCCCCC(=O)N[C@@H](CCC(=O)NCCCC[C@H](NC(=O)[C@H](CO)NC(=O)[C@H](CC(=O)O)NC(=O)[C@H](CC(C)C)NC(=O)[C@H](Cc1ccc(O)cc1)NC(=O)[C@H](CCCCN)NC(=O)[C@H](CO)NC(=O)[C@H](Cc1ccc(O)cc1)NC(=O)[C@H](CC(=O)O)NC(=O)[C@H](CO)NC(=O)[C@@H](NC(=O)[C@H](Cc1ccccc1)NC(=O)[C@@H](NC(=O)CNC(=O)[C@H](CCC(N)=O)NC(=O)CNC(=O)[C@@H](N)Cc1c[nH]cn1)[C@@H](C)O)[C@@H](C)O)C(=O)N[C@@H](CCCNC(=N)N)C(=O)N[C@@H](C)C(=O)N[C@@H](CCC(N)=O)C(=O)N[C@@H](CC(=O)O)C(=O)N[C@@H](Cc1ccccc1)C(=O)N[C@H](C(=O)N[C@@H](CCC(N)=O)C(=O)N[C@@H](Cc1c[nH]c2ccccc12)C(=O)N[C@@H](CC(C)C)C(=O)N[C@@H](CCC(=O)O)C(=O)N[C@@H](C)C(=O)NCC(=O)NCC(N)=O)C(C)C)C(=O)O [g512] | 0.098 nM | 0.0606 nM | 407 nM |
| CCCCCCCCCCCCCCCC(=O)N[C@@H](CCC(=O)NCCCC[C@H](NC(=O)[C@H](CO)NC(=O)[C@H](CC(=O)O)NC(=O)[C@H](CC(C)C)NC(=O)[C@H](Cc1ccc(O)cc1)NC(=O)[C@H](CCCCN)NC(=O)[C@H](CO)NC(=O)[C@H](Cc1ccc(O)cc1)NC(=O)[C@H](CC(=O)O)NC(=O)[C@H](CO)NC(=O)[C@@H](NC(=O)[C@H](Cc1ccccc1)NC(=O)[C@@H](NC(=O)CNC(=O)[C@H](CCC(=O)O)NC(=O)[C@H](CO)NC(=O)[C@@H](N)Cc1c[nH]cn1)[C@@H](C)O)[C@@H](C)O)C(=O)N[C@@H](CCCNC(=N)N)C(=O)N[C@@H](C)C(=O)N[C@@H](CCC(N)=O)C(=O)N[C@@H](CC(=O)O)C(=O)N[C@@H](Cc1ccccc1)C(=O)N[C@H](C(=O)N[C@@H](CCC(N)=O)C(=O)N[C@@H](Cc1c[nH]c2ccccc12)C(=O)N[C@@H](CC(C)C)C(=O)N[C@@H](CCC(=O)O)C(=O)N[C@@H](C)C(=O)NCC(=O)NCC(N)=O)C(C)C)C(=O)O [g513] (H-HSEGTFTSDYSKYLDSK([γGlu-Palmitoyl])RAQDFVQWLEAGG-NH2; N-terminus assumed) | 0.175 nM | 0.723 nM | 298 nM |
| CCCCCCCCCCCCCCCC(=O)N[C@@H](CCC(=O)NCCCC[C@H](NC(=O)[C@H](CO)NC(=O)[C@H](CC(=O)O)NC(=O)[C@H](CC(C)C)NC(=O)[C@H](Cc1ccc(O)cc1)NC(=O)[C@H](CCCCN)NC(=O)[C@H](CO)NC(=O)[C@H](Cc1ccc(O)cc1)NC(=O)[C@H](CC(=O)O)NC(=O)[C@H](CO)NC(=O)[C@@H](NC(=O)[C@H](Cc1ccccc1)NC(=O)[C@@H](NC(=O)CNC(=O)[C@H](CCC(N)=O)NC(=O)CNC(=O)[C@@H](N)Cc1c[nH]cn1)[C@@H](C)O)[C@@H](C)O)C(=O)N[C@@H](CCCNC(=N)N)C(=O)N[C@@H](C)C(=O)N[C@@H](CCC(N)=O)C(=O)N[C@@H](CC(=O)O)C(=O)N[C@@H](Cc1ccccc1)C(=O)N[C@H](C(=O)N[C@@H](CCC(N)=O)C(=O)N[C@@H](Cc1c[nH]c2ccccc12)C(=O)N[C@@H](CC(C)C)C(=O)N[C@@H](CCC(=O)O)C(=O)N[C@@H](CCCNC(=N)N)C(=O)NCC(=O)NCC(N)=O)C(C)C)C(=O)O [g588] | 0.11 nM | 0.0723 nM | 98 nM |
| CCCCCCCCCCCCCCCC(=O)N[C@@H](CCC(=O)NCCCC[C@H](NC(=O)[C@H](CO)NC(=O)[C@H](CC(=O)O)NC(=O)[C@H](CC(C)C)NC(=O)[C@H](Cc1ccc(O)cc1)NC(=O)[C@H](CCCCN)NC(=O)[C@H](CO)NC(=O)[C@H](Cc1ccc(O)cc1)NC(=O)[C@H](CC(=O)O)NC(=O)[C@H](CO)NC(=O)[C@@H](NC(=O)[C@H](Cc1ccccc1)NC(=O)[C@@H](NC(=O)CNC(=O)[C@H](CCC(N)=O)NC(=O)[C@H](CO)NC(=O)[C@@H](N)Cc1c[nH]cn1)[C@@H](C)O)[C@@H](C)O)C(=O)N[C@@H](CCCNC(=N)N)C(=O)N[C@@H](C)C(=O)N[C@@H](CCC(N)=O)C(=O)N[C@@H](CC(=O)O)C(=O)N[C@@H](Cc1ccccc1)C(=O)N[C@H](C(=O)N[C@@H](CCC(=O)O)C(=O)N[C@@H](Cc1c[nH]c2ccccc12)C(=O)N[C@@H](CC(C)C)C(=O)N[C@H](C(=O)N[C@@H](C)C(=O)NCC(=O)NCC(N)=O)C(C)C)C(C)C)C(=O)O [g600] (H-HSQGTFTSDYSKYLDSK([γGlu-Palmitoyl])RAQDFVEWLVAGG-NH2; N-terminus assumed) | 0.0666 nM | 0.00547 nM | 124 nM and 82.8 nM |
| CCCCCCCCCCCCCCCC(=O)NCCCCCC(=O)NCCCC[C@H](NC(=O)[C@H](CO)NC(=O)[C@H](CC(=O)O)NC(=O)[C@H](CC(C)C)NC(=O)[C@H](Cc1ccc(O)cc1)NC(=O)[C@H](CCC(=O)O)NC(=O)[C@H](CO)NC(=O)[C@H](Cc1ccc(O)cc1)NC(=O)[C@H](CC(=O)O)NC(=O)[C@H](CO)NC(=O)[C@@H](NC(=O)[C@H](Cc1ccccc1)NC(=O)[C@@H](NC(=O)CNC(=O)[C@H](CCC(N)=O)NC(=O)[C@H](CO)NC(=O)[C@@H](N)Cc1c[nH]cn1)[C@@H](C)O)[C@@H](C)O)C(=O)N[C@@H](CCCNC(=N)N)C(=O)N[C@@H](C)C(=O)N[C@@H](CCC(N)=O)C(=O)N[C@@H](CC(=O)O)C(=O)N[C@@H](Cc1ccccc1)C(=O)N[C@H](C(=O)N[C@@H](CCC(N)=O)C(=O)N[C@@H](Cc1c[nH]c2ccccc12)C(=O)N[C@@H](CC(C)C)C(=O)N[C@@H](CCC(=O)O)C(=O)N[C@@H](CCCNC(=N)N)C(=O)NCC(=O)NCC(N)=O)C(C)C [g614] (H-HSQGTFTSDYSEYLDSK([Ahx-Palmitoyl])RAQDFVQWLERGG-NH2; N-terminus assumed) | 0.00931 nM | 0.00365 nM | 99.3 nM |
